In the assay the test system is HCT116. The following applies: 72 h. Summed up:
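Four-parameter Hill fits gave IC50 and maximal efficacy. The data were CellTiter-Glo luminescence readings in HCT116 cells, normalized so that vehicle was 0% and positive control was -100%, with pattern correction afterwards.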

Counter-ions that a name gives are not always drawn. Bounds are passed on as bounds.

On to `NC1=NCC2c3ccccc3Cc3ccccc3N12` (centres undefined) [Epinastine hydrochloride], for which the IC50 cell viability is, setting by setting: (ICRF193 0 nM) more than 45.8 µM; (ICRF193 200 nM) more than 45.8 µM.
As for `O=C1C2CC=CCC2C(=O)N1SC(Cl)(Cl)Cl` (centres undefined) [Captan], the IC50 cell viability was more than 45.8 µM (ICRF193 0 nM) and more than 45.8 µM (ICRF193 200 nM).
On to `COC1(O[C@H]2CC[C@H]3[C@@H]4CC[C@H]5C[C@@H]6S[C@@H]6C[C@]5(C)[C@H]4CC[C@]23C)CCCC1` [Mepitiostane (Contains ~15% 3a,4a-Epithio isomer)], for which the IC50 cell viability runs as follows: (ICRF193 0 nM) more than 45.8 µM; (ICRF193 200 nM) more than 45.8 µM.
With `C[C@]12CC[C@H]3[C@@H](CCC4=CC(=O)CC[C@@]43C)[C@@H]1CC[C@@H]2OC(=O)CCc1ccccc1` [Testosterone 17-phenylpropionate], the IC50 cell viability is, setting by setting: (ICRF193 0 nM) more than 45.8 µM; (ICRF193 200 nM) more than 45.8 µM.
Turning to `C[C@@H]1C[C@H]2[C@@H]3C[C@H](F)C4=CC(=O)C=C[C@]4(C)[C@@]3(F)[C@@H](O)C[C@]2(C)[C@@]1(O)C(=O)COC(=O)C(C)(C)C` [Flumethasone pivalate], the IC50 cell viability reads like this: (ICRF193 0 nM) more than 45.8 µM; (ICRF193 200 nM) more than 45.8 µM.
In the case of `CC1(C)S[C@@H]2[C@H](N)C(=O)N2[C@H]1C(=O)O` [6-Aminopenicillanic acid], the IC50 cell viability (ICRF193 0 nM) is more than 45.8 µM and the IC50 cell viability (ICRF193 200 nM) is more than 45.8 µM.
Regarding `Nc1c(NC/C=C\COc2cc(CN3CCCCC3)ccn2)c(=O)c1=O` [Pibutidine], the IC50 cell viability by setting is: (ICRF193 0 nM) more than 45.8 µM; (ICRF193 200 nM) more than 45.8 µM.
On to `CCCCC/C=C\C/C=C\C/C=C\CCCCC(=O)O` [Gamolenic acid], for which the IC50 cell viability reads like this: (ICRF193 0 nM) more than 45.8 µM; (ICRF193 200 nM) more than 45.8 µM.
`COc1ccc(C2C(=O)c3ccccc3C2=O)cc1` [Anisindione]: the IC50 cell viability is, setting by setting: (ICRF193 0 nM) more than 45.8 µM; (ICRF193 200 nM) more than 45.8 µM.
Consider `CO/N=C(\C(=O)N[C@@H]1C(=O)N2C(C(=O)OC(C)OC(C)=O)=C(COC(N)=O)CS[C@H]12)c1ccco1` (some centres undefined) [Cefuroxime Axetil], for which the IC50 cell viability reads like this: (ICRF193 0 nM) more than 45.8 µM; (ICRF193 200 nM) more than 45.8 µM.
Turning to `NNc1nncc2ccccc12` [Apresoline], the IC50 cell viability runs as follows: (ICRF193 0 nM) more than 45.8 µM; (ICRF193 200 nM) more than 45.8 µM.
With `NC[C@H]1O[C@H](O[C@H]2[C@H](O)[C@@H](O[C@H]3O[C@H](CO)[C@@H](O)[C@H](N)[C@H]3O)[C@H](N)C[C@@H]2N)[C@H](O)[C@@H](O)[C@@H]1O` [Kanamycin (sulfate)], the IC50 cell viability runs as follows: (ICRF193 0 nM) more than 45.8 µM; (ICRF193 200 nM) more than 45.8 µM.
Consider `CCCCN(CCCC)CCCOC(=O)c1ccc(N)cc1` [Butacaine], for which the IC50 cell viability runs as follows: (ICRF193 0 nM) more than 45.8 µM; (ICRF193 200 nM) more than 45.8 µM.
As for `CC(C(O)c1ccc(O)cc1)N1CCC(Cc2ccccc2)CC1` (centres undefined) [Ifenprodil], the IC50 cell viability is, setting by setting: (ICRF193 0 nM) more than 45.8 µM; (ICRF193 200 nM) more than 45.8 µM.
`Sc1nc2ccccc2s1` [2-Mercaptobenzothiazole]: the IC50 cell viability is, setting by setting: (ICRF193 0 nM) more than 45.8 µM; (ICRF193 200 nM) more than 45.8 µM.
In the case of `CCN(CC)C(=O)c1cccc(C)c1` [DEET], the IC50 cell viability was more than 45.8 µM (ICRF193 0 nM) and more than 45.8 µM (ICRF193 200 nM).
Consider `CC1(C)O[C@@H]2[C@@H](CO[C@@]3(COS(N)(=O)=O)OC(C)(C)O[C@@H]23)O1` [Topiramate], for which the IC50 cell viability runs as follows: (ICRF193 0 nM) more than 45.8 µM; (ICRF193 200 nM) more than 45.8 µM.
Take `O=NN(CCCl)C(=O)NCCCl` [Carmustine]: the IC50 cell viability is more than 45.8 µM (ICRF193 0 nM) and more than 45.8 µM (ICRF193 200 nM).
Regarding `COc1ccc2cc(CCC(C)=O)ccc2c1` [Nabumetone], the IC50 cell viability (ICRF193 0 nM) was more than 45.8 µM and the IC50 cell viability (ICRF193 200 nM) is more than 45.8 µM.
Consider `Cc1nc(C)c(Cl)c(O)c1Cl` [Clopidol], for which the IC50 cell viability is, setting by setting: (ICRF193 0 nM) more than 45.8 µM; (ICRF193 200 nM) more than 45.8 µM.
In the case of `N#Cc1ccc2[nH]cc(CCCCN3CCN(c4ccc5oc(C(N)=O)cc5c4)CC3)c2c1` [Vilazodone Hydrochloride], the IC50 cell viability was more than 45.8 µM (ICRF193 0 nM) and more than 45.8 µM (ICRF193 200 nM).
For `CC1CCN(CCCC(=O)c2ccc(F)cc2)CC1` [Methylperone], the IC50 cell viability is more than 45.8 µM (ICRF193 0 nM) and more than 45.8 µM (ICRF193 200 nM).
As for `CCC1NC(=O)c2cc(S(N)(=O)=O)c(Cl)cc2N1` (centres undefined) [Quinethazone], the IC50 cell viability by setting is: (ICRF193 0 nM) more than 45.8 µM; (ICRF193 200 nM) more than 45.8 µM.
Regarding `CC12CCC(CC1)C(C)(C)O2` [1,8-Cineol], the IC50 cell viability (ICRF193 0 nM) was more than 45.8 µM and the IC50 cell viability (ICRF193 200 nM) was more than 45.8 µM.
For the compound `O=C(O[C@H]1[C@H](OC(=O)c2cccnc2)[C@@H](OC(=O)c2cccnc2)[C@H](OC(=O)c2cccnc2)[C@@H](OC(=O)c2cccnc2)[C@H]1OC(=O)c1cccnc1)c1cccnc1` [INOSITOL NIACINATE], the IC50 cell viability runs as follows: (ICRF193 0 nM) more than 45.8 µM; (ICRF193 200 nM) more than 45.8 µM.
As to `CCN(CC)CCOC(=O)C1(c2ccccc2)CCCC1` [Caramiphen edisylate], the IC50 cell viability was more than 45.8 µM (ICRF193 0 nM) and more than 45.8 µM (ICRF193 200 nM).
The compound `CCCN[C@H]1CCc2nc(N)sc2C1` [Pramipexole hydrochloride] showed an IC50 cell viability (ICRF193 0 nM) of more than 45.8 µM and an IC50 cell viability (ICRF193 200 nM) of more than 45.8 µM.

The values are drawn from the supplement of paper PMC12137928.
